In publication PMC10567728, “Targeted imaging of uPAR expression in vivo with cyclic AE105 variants” (Scientific Reports, 2023):
“And” between values parts separate entries of the source, which are not always exact repeats. Equal values may be shown once. Read-outs that look alike come from different tables or passages of the source. Positions of bridges follow the written chain, without caps; N, C: chain ends. Non-standard residues stand in square brackets, D forms with d. Residues, ends and D or L forms follow the SMILES beside them. *: point of attachment. DOTA = O=C(O)CN1CCN(CC(=O)O)CCN(CC(=O)*)CCN(CC(=O)O)CC1; Cha = N[C@@H](CC1CCCCC1)C(=O)O

Tests used:
uPAR•uPA interaction = target: T1, uPAR•uPA interaction (Homo sapiens, UniProt Q03405); assay: SPR competition assay of the uPAR•uPA interaction; assay type: binding; conditions: for IC50: competition of uPAR•uPA interaction, 2 nM uPAR, 20 °C, n = 3
T1 construct: Recombinant human uPAR^1–283 was expressed; made in house; host or cells: Drosophila melanogaster S2 cells
Method: The IC50-values of antagonistic peptides on the uPAR•uPA interaction were determined with SPR using a Biacore T200™ or Biacore 3000™ instruments (Cytiva) essentially as described[4],[56],[77]. In brief, we immobilized high levels of pro-uPA^S356A (0.1 pmol pro-uPA/mm^2) on a CM5 sensor chip via amine coupling. The experiments were conducted by injecting 2 nM uPAR in presence of a threefold dilution series of a given antagonistic peptide for 300 s with a flow rate of 50 µL/min at 20 °C. The high immobilization levels result in binding conditions that are entirely controlled by mass transport limitations (MTL). Accordingly, the observed association rates (vobs) are directly proportional to the concentrations of binding-active uPAR in solution. To determine the IC50, we also measured a standard curve of uPAR binding (a twofold dilution series of 0.06 to 2 nM uPAR, linear due to MTL). The running buffer was 10 mM HEPES, 150 mM NaCl, 3 mM EDTA, and 0.05% (v/v) surfactant P-20 at pH 7.4, and the regeneration buffer was 0.1 M acetic acid in 0.5 M NaCl.

uPAR [1] = target: T2, uPAR (Homo sapiens, UniProt Q03405); assay: SPR real-time binding kinetics, peptides in solution and immobilised uPAR
T2 construct: Recombinant human uPAR^1–283 was expressed; made in house; host or cells: Drosophila melanogaster S2 cells
Method: The real-time binding kinetics of uPAR•peptide interactions were measured with SPR using a Biacore T200™(Cytiva); essentially as described in[56],[77]. In brief, uPAR was covalently immobilised on a CM5 sensor chip via amine coupling resulting in a surface density of 1157–1581 RU (~ 33–44 fmol/mm^2). The binding kinetics for the peptides to immobilised uPAR were measured using a single cycle protocol. In this setup, peptides were injected as five serial two-fold dilutions with a contact time of 200 s. After the last analyte injection, the dissociation time was set to 1000 s. The sensor chip was regenerated with two consecutive injections of 0.1 M acetic acid in 0.5 M NaCl. All experiments were conducted at 20 °C with a flow rate of 50 µL/min in 10 mM HEPES, 150 mM NaCl, 3 mM EDTA, and 0.05% (v/v) surfactant P-20 at pH 7.4. The kinetic rate constants (kon and koff) were determined by non-linear regression fitting of the curves to the simple bimolecular interaction model (BiacoreT200 Evaluation™ 3.0 software).

uPAR [2] = target: T2, uPAR; assay: Nano-DSF thermal stability of uPAR•peptide complexes; conditions: for Tm (apparent melting temperature of uPAR•peptide complex): 15 µM uPAR, 30 µM peptide, PBS pH 7.4, n = 3
Method: The thermal stability of the uPAR•peptide complexes was analyzed with Nano-DSF using a Prometheus NT.48™ (Nanotemper). uPAR (15 µM) was mixed with twofold excess of peptide (30 µM) in PBS pH 7.4 and incubated for 15 min at RT to ensure complex formation. Samples containing either 15 µM uPAR or 30 µM of each peptide were included as controls. The samples were loaded into standard capillaries and in triplicates. To unfold the proteins, the samples were exposed to an increasing temperature gradient from 20 to 95 °C with a ramping rate of 1 °C/min. The excitation power was set to 50% (Ex.280 nm) and the fluorescence emission collected at 330 nm and 350 nm. The melting temperatures of the complexes were determined in the PR.ThermControl software (Nanotemper) from the first derivative of the fluorescence ratio (350 nm/330 nm).

[3] = [63Cu]-DOTA labelled peptides, single-cycle SPR
[4] = single cycle SPR, immobilised uPAR, 20 °C
[5] = single cycle SPR, immobilised uPAR, 20 °C, 1:1 model
[6] = single cycle SPR, immobilised uPAR, 20 °C, read-out: kon

T1 sequence (Q03405 23-305): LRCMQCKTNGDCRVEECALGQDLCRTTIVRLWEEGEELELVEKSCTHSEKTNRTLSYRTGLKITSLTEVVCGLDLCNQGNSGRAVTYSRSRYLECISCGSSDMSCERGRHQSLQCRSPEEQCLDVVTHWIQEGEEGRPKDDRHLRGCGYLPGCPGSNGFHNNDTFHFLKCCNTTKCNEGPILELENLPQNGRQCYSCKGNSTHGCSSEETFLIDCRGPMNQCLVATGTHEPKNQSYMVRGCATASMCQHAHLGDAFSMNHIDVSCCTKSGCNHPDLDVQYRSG
T2 sequence (Q03405 23-305): as above

Row | SMILES | IC50 (uPAR•uPA interaction) | koff (uPAR [1]; [4]) | Kd (uPAR [1]; [5]) | kon (uPAR [1]; [6]) | Tm (apparent melting temperature of uPAR•peptide complex) (uPAR [2]) | other results
1 | CC(C)C[C@H](NC(=O)[C@H](Cc1ccc(O)cc1)NC(=O)[C@@H](CCCNC(=N)N)NC(=O)[C@@H](CO)NC(=O)[C@H](Cc1ccccc1)NC(=O)[C@H](CC1CCCCC1)NC(=O)[C@H](CC(=O)O)NC(=O)CN1CCN(CC(=O)O)CCN(CC(=O)O)CCN(CC(=O)O)CC1)C(=O)N[C@@H](Cc1c[nH]c2ccccc12)C(=O)N[C@@H](CO)C(=O)O [1b] | 48 ± 2 nM | 0.00557 ± 1e-05 s⁻¹ | 26.9 nM | 207000 ± 1000 M⁻¹ s⁻¹ | 58.8 °C | IC50 of DOTA-conjugated peptide compared to unconjugated peptide (uPAR•uPA interaction; (1b) vs (1), (8b) vs (8)): four to fivefold higher; Kd (uPAR [1]; [3]): 86.5 nM; koff (uPAR [1]; [3]): 0.0175 ± 0.0003 s⁻¹; kon (uPAR [1]; [3]): 2.02 ± 0.03 105 M-1 s-1; reduction of affinity on DOTA-conjugation (uPAR [1]; real-time binding kinetics, vs unconjugated peptides): 8–11 fold
2 | CC(C)C[C@H](NC(=O)[C@H](Cc1ccc(O)cc1)NC(=O)[C@@H](CCCNC(=N)N)NC(=O)[C@@H](CO)NC(=O)[C@H](Cc1ccccc1)NC(=O)[C@H](CC1CCCCC1)NC(=O)[C@@H](N)CC(=O)O)C(=O)N[C@@H](Cc1c[nH]c2ccccc12)C(=O)N[C@@H](CO)C(=O)O [compound 1, AE105] | 8.8 ± 0.2 nM | 0.00396 ± 1e-05 s⁻¹ | 2.52 nM | 1.568e+06 ± 5000 M⁻¹ s⁻¹ |  | 
3 | CC(C)C[C@H](NC(=O)[C@H](Cc1ccc(O)cc1)NC(=O)[C@@H](CCCCN)NC(=O)[C@@H](CO)NC(=O)[C@H](Cc1ccccc1)NC(=O)[C@H](CC1CCCCC1)NC(=O)[C@@H](N)CC(=O)O)C(=O)N[C@@H](Cc1c[nH]c2ccccc12)C(=O)N[C@@H](CO)C(=O)O [compound 2] (H-D[Cha]F[dS][dK]YLWS-OH; N-terminus assumed) | 50.9 ± 2 nM | 0.0298 ± 0.0001 s⁻¹ | 50.2 nM | 594000 ± 3000 M⁻¹ s⁻¹ |  | 
4 | CC(C)C[C@@H]1NC(=O)[C@H](Cc2ccc(O)cc2)NC(=O)[C@H](NC(=O)[C@@H](CO)NC(=O)[C@H](Cc2ccccc2)NC(=O)[C@H](CC2CCCCC2)NC(=O)[C@@H](N)CC(=O)O)CSSC[C@@H](C(=O)O)NC(=O)[C@H](Cc2c[nH]c3ccccc23)NC1=O [compound 3] (H-D[Cha]F[dS][dC]YLWC-OH; disulfide 5-9; N-terminus assumed) | 6.5 ± 0.3 nM | 0.00365 ± 1e-05 s⁻¹ | 3.32 nM | 1.098e+06 ± 4000 M⁻¹ s⁻¹ |  | 
5 | CC(C)C[C@H](NC(=O)[C@H](Cc1ccc(O)cc1)NC(=O)[C@@H](CO)NC(=O)[C@@H](CO)NC(=O)[C@H](Cc1ccccc1)NC(=O)[C@H](CC1CCCCC1)NC(=O)[C@H](CC(=O)O)NC(=O)CNC(=O)CNC(=O)[C@@H](CO)NC(=O)CNC(=O)[C@H](CCC(=O)O)NC(=O)[C@@H](N)CCC(=O)O)C(=O)N[C@@H](Cc1c[nH]c2ccccc12)C(=O)N[C@@H](CO)C(=O)O [compound 5] (H-EEG[dS]GGD[Cha]F[dS][dS]YLWS-OH; N-terminus assumed) |  | 0.054 ± 0.0003 s⁻¹ |  | 201000 ± 2000 M⁻¹ s⁻¹ |  | fold decrease in potency (uPAR•uPA interaction; compared to (4)): 7.8 fold
6 | CC(C)C[C@@H]1NC(=O)[C@@H]2CCCN2C(=O)[C@H](NC(=O)[C@@H](CO)NC(=O)[C@H](Cc2ccccc2)NC(=O)[C@H](CC2CCCCC2)NC(=O)[C@H](CC(=O)O)NC(=O)CNC(=O)CNC(=O)[C@@H](CO)NC(=O)CNC(=O)[C@H](CCC(=O)O)NC(=O)[C@@H](N)CCC(=O)O)CSSC[C@@H](C(=O)O)NC(=O)[C@H](Cc2c[nH]c3ccccc23)NC1=O [compound 7] (H-EEG[dS]GGD[Cha]F[dS][dC]PLWC-OH; disulfide 11-15 (inferred); N-terminus assumed) |  |  |  |  |  | KD (uPAR [1]; [5]): N.B
7 | CC(C)C[C@H](NC(=O)[C@H](Cc1ccc(O)cc1)NC(=O)[C@@H](CCCNC(=N)N)NC(=O)[C@@H](CO)NC(=O)[C@H](Cc1ccccc1)NC(=O)[C@H](CC1CCCCC1)NC(=O)[C@@H](N)CC(=O)O)C(=O)N[C@@H](Cc1c[nH]c2ccccc12)C(=O)N[C@@H](CO)C(N)=O [compound 8] | 2.1 ± 0.1 nM | 0.000998 ± 1e-06 s⁻¹ | 0.53 nM | 1.89e+06 ± 3000 M⁻¹ s⁻¹ |  | 
8 | CC(C)C[C@@H]1NC(=O)[C@H](Cc2ccc(O)cc2)NC(=O)[C@H](NC(=O)[C@@H](CO)NC(=O)[C@H](Cc2ccccc2)NC(=O)[C@H](CC2CCCCC2)NC(=O)[C@@H](N)CC(=O)O)CSSC[C@@H](C(N)=O)NC(=O)[C@H](Cc2c[nH]c3ccccc23)NC1=O [compound 9] (H-D[Cha]F[dS][dC]YLWC-NH2; disulfide 5-9; N-terminus assumed) | 8.9 ± 0.3 nM | 0.002063 ± 3e-06 s⁻¹ | 2.9 nM | 712000 ± 2000 M⁻¹ s⁻¹ |  | 
9 | CC(C)C[C@@H]1NC(=O)[C@H](Cc2ccc(O)cc2)NC(=O)[C@H](NC(=O)[C@@H](CO)NC(=O)[C@H](Cc2ccccc2)NC(=O)[C@H](CC2CCCCC2)NC(=O)[C@H](CC(=O)O)NC(=O)CNC(=O)CNC(=O)[C@@H](CO)NC(=O)CNC(=O)[C@H](CCC(=O)O)NC(=O)[C@@H](N)CCC(=O)O)CSSC[C@@H](C(N)=O)NC(=O)[C@H](Cc2c[nH]c3ccccc23)NC1=O [compound 11] (H-EEG[dS]GGD[Cha]F[dS][dC]YLWC-NH2; disulfide 11-15; N-terminus assumed) |  | 0.005015 ± 8e-06 s⁻¹ |  | 500000 ± 2000 M⁻¹ s⁻¹ | ~ 65 °C | 

More lines, main results first:

Row | IC50 (uPAR•uPA interaction) | koff (uPAR [1]; [4]) | Kd (uPAR [1]; [5]) | kon (uPAR [1]; [6]) | SMILES | Tm (apparent melting temperature of uPAR•peptide complex) (uPAR [2]) | other results
10 | 10.9 ± 0.3 nM | 0.0044 ± 1e-05 s⁻¹ | 12.5 nM | 352000 ± 1000 M⁻¹ s⁻¹ | CC(C)C[C@@H]1NC(=O)[C@H](Cc2ccc(O)cc2)NC(=O)[C@H](NC(=O)[C@@H](CO)NC(=O)[C@H](Cc2ccccc2)NC(=O)[C@H](CC2CCCCC2)NC(=O)[C@H](CC(=O)O)NC(=O)CN2CCN(CC(=O)O)CCN(CC(=O)O)CCN(CC(=O)O)CC2)CSSC[C@@H](C(=O)O)NC(=O)[C@H](Cc2c[nH]c3ccccc23)NC1=O [3b] ({DOTA}-D[Cha]F[dS][dC]YLWC-OH; disulfide 5-9) | ~ 70 °C | increase in apparent Tm (uPAR [2]; DOTA-conjugated peptides, compared to (1b)): approximately 11 °C
11 | 32.2 ± 0.9 nM | 0.00717 ± 1e-05 s⁻¹ | 33.6 nM | 213000 ± 400 M⁻¹ s⁻¹ | CC(C)C[C@H](NC(=O)[C@H](Cc1ccc(O)cc1)NC(=O)[C@@H](CCCNC(=N)N)NC(=O)[C@@H](CO)NC(=O)[C@H](Cc1ccccc1)NC(=O)[C@H](CC1CCCCC1)NC(=O)[C@H](CC(=O)O)NC(=O)CNC(=O)CNC(=O)[C@@H](CO)NC(=O)CNC(=O)[C@H](CCC(=O)O)NC(=O)[C@H](CCC(=O)O)NC(=O)CN1CCN(CC(=O)O)CCN(CC(=O)O)CCN(CC(=O)O)CC1)C(=O)N[C@@H](Cc1c[nH]c2ccccc12)C(=O)N[C@@H](CO)C(=O)O [4b] ({DOTA}-EEG[dS]GGD[Cha]F[dS][dR]YLWS-OH) | 55.6 ± 0.03 °C | 
12 | 7.7 ± 0.2 nM | 0.003562 ± 3e-06 s⁻¹ | 5 nM and 4.97 nM | 717000 ± 1000 M⁻¹ s⁻¹ | CC(C)C[C@@H]1NC(=O)[C@H](Cc2ccc(O)cc2)NC(=O)[C@H](NC(=O)[C@@H](CO)NC(=O)[C@H](Cc2ccccc2)NC(=O)[C@H](CC2CCCCC2)NC(=O)[C@H](CC(=O)O)NC(=O)CNC(=O)CNC(=O)[C@@H](CO)NC(=O)CNC(=O)[C@H](CCC(=O)O)NC(=O)[C@H](CCC(=O)O)NC(=O)CN2CCN(CC(=O)O)CCN(CC(=O)O)CCN(CC(=O)O)CC2)CSSC[C@@H](C(N)=O)NC(=O)[C@H](Cc2c[nH]c3ccccc23)NC1=O [11b] ({DOTA}-EEG[dS]GGD[Cha]F[dS][dC]YLWC-NH2; disulfide 11-15) |  | Kd (uPAR [1]; [3]): 22.6 nM; koff (uPAR [1]; [3]): 0.0036 ± 1e-05 s⁻¹
